Test results: US4665087A, “1-(carbamyl, thiocarbamyl, and iminocarbamyl)-indoline derivatives” (Ciba-Geigy Corporation, priority 1985, dated 1987)
Counter-ions that a name gives are not always drawn.

Experiments:
[1] = biological target: T1, angiotensin-converting enzyme (Oryctolagus cuniculus, UniProt P12822); experiment: in vitro inhibition of the angiotensin-converting enzyme; format: biochemical, rabbit
T1 construct: freshly prepared from lungs of adult male rabbits; from tissue; host or cells: lungs of adult male rabbits
T1 sequence (P12822 34-1310): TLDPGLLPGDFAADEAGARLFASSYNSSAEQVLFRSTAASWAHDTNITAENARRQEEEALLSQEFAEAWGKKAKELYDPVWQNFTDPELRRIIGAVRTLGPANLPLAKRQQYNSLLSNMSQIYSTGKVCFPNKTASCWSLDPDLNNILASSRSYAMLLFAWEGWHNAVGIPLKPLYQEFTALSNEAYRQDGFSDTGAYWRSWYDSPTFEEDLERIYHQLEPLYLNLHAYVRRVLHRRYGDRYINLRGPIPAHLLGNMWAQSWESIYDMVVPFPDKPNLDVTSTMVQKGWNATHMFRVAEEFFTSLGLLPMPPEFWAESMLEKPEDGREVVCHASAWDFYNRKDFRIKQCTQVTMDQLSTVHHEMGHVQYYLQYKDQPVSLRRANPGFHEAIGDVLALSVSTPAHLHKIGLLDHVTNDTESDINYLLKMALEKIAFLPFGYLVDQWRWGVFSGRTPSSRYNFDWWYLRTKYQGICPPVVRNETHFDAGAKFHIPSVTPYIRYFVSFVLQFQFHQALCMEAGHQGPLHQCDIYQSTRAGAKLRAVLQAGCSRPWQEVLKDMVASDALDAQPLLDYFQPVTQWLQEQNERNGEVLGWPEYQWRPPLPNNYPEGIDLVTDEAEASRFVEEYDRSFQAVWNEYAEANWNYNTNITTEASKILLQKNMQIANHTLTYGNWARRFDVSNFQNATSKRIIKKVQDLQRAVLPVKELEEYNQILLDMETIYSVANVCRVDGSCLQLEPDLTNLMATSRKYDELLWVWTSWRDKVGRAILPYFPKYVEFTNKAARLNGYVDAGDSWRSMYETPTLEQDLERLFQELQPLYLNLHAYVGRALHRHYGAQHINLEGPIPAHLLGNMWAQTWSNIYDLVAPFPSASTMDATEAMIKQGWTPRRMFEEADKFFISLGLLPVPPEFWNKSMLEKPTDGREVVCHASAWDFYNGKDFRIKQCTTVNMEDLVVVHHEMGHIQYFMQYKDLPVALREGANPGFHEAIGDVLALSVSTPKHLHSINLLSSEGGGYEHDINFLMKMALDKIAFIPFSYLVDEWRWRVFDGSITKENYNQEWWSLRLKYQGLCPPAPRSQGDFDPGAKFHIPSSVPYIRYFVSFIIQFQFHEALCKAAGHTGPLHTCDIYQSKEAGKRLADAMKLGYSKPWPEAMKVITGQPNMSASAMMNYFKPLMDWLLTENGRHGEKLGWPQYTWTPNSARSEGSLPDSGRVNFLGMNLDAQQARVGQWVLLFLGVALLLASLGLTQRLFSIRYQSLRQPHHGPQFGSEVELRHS
Description: Biophys. Acta 293, 451 (1973). According to this method said compounds are dissolved at about 1 mM concentrations in phosphate buffer, externally cooled with ice. To these solutions various μl amounts of 1 mM of histidyl-leucine in phosphate buffer are added, followed by 100 μl of 4mM hippuryl-histidyl-leucine in phosphate buffer and 50 μl of the angiotensin-converting enzyme, which is freshly prepared from lungs of adult male rabbits in Tris buffer, containing potassium and magnesium chloride, as well as sucrose. The solutions are incubated at 37° C. for 30 minutes and combined with 0.75 ml or 0.6 N aqueous sodium hydroxide to stop further reaction. Then 100 μl of o-phthalaldehyde are added at room temperature, and 10 minutes later 100 μl of 6N hydrochloric acid. These samples are read against water in a spectrophotometer set at 360 nm, and the optical densities thereof estimated. They are corrected for the standard curve via a conversion factor expressing nanomoles of histidyl-leucine formed during the 30 minute incubation period. The results are plotted against drug concentration to determine the IC50, i.e., the drug concentration which gives half the activity of the control sample containing no drug. Again, representative members of the compounds of this invention are very effective in this in vitro test system, down to IC50 values as low as 5 nM (5×10^-9 M).

[2] = test system: angiotensin I pressor response; experiment: inhibition of the angiotensin I pressor response in anesthetized normotensive rats; format: in vivo; conditions: rat, 1.0 mg/kg i.v.
Description: The enzyme renin normally causes specific hydrolysis of the circulating protein renin substrate. This hydrolysis generates angiotensin I, which is further hydrolyzed by the action of said converting enzyme to the potent vasoconstrictor angiotensin II. The inhibition of said enzyme prevents the generation of angiotensin II from I and, therefore, attenuates any pressure response following an angiotensin I challenge.
The corresponding in vivo test is performed with male, normotensive rats, which are anesthetized with 100-120 mg/kg i.p. of sodium ethyl-(1-methylpropyl)-malonylthiourea. A femoral artery and saphenous vein are cannulated for direct blood pressure measurement and i.v. administration of angiotensin I and compounds of this invention. After the basal blood pressure is stabilized, pressor response is to 3 challenge of 0.33 μg/kg of angiotensin I i.v., in 5 minutes intervals, are obtained. Such pressure responses are again obtained 5, 10, 15, 30 and 60 minutes after either i.v., or p.o. administration (stomach tube) of the compounds to be tested, and compared with the initial responses. […]

IC50 [1]: ~6 nM
SMILES: NCCCCN(C[C@@H](CCc1ccccc1)C(=O)O)C(=O)N1c2ccccc2C[C@H]1C(=O)O [Example 9, 1S-[(R)-N-(2-carboxy-4-phenylbutyl)-N-(4-aminobutyl)carbamoyl]-2,3-dihydroindole-2-carboxylic acid disodium salt]
inhibition of the angiotensin I induced hypertension [2]: virtually completely inhibits
